Source: ChEMBL document CHEMBL3987221, “The Australian National University Dept Of Immunology Pathogen Box Compounds Screened” (2018)
Active and inactive are the calls of the source. How the calls were made is not given here.

Legend:
[1] = molecular target: T1, Ferrochelatase, mitochondrial (Homo sapiens) (UniProt P22830); conditions: at 10 µM
T1 sequence (whole entry): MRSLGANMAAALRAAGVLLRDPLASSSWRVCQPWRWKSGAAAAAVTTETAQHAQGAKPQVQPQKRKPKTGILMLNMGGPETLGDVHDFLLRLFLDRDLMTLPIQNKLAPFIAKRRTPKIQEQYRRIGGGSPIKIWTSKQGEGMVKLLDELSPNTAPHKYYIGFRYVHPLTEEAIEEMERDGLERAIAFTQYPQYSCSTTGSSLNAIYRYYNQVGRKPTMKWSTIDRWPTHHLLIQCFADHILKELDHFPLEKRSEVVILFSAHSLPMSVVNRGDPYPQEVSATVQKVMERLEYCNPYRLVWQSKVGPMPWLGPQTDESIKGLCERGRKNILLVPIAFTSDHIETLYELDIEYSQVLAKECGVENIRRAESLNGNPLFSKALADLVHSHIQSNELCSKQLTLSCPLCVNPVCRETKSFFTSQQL
Description: Compound was evaluated for the inhibition of human FECH at 10uM

[2] = molecular target: T2, Porphobilinogen deaminase (Homo sapiens) (UniProt P08397); conditions: at 100 µM
T2 sequence (whole entry): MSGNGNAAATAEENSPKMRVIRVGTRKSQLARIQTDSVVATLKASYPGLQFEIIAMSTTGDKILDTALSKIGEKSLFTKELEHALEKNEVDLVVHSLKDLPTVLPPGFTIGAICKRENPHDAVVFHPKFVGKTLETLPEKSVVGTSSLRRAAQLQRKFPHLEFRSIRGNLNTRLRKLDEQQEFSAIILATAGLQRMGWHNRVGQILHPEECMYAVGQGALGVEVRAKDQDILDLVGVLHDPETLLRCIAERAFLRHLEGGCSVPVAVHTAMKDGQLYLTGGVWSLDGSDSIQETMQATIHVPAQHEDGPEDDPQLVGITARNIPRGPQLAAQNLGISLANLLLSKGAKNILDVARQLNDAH
Description: Compound was evaluated for the inhibition of human HMBS at 100uM

Compound | inhibition [1] | inhibition [2]
Cc1ncc(-c2ccnc(Nc3ccc(S(C)(=O)=O)cc3)n2)n1C(C)C | inactive | inactive
Cc1ccc2nc(C)c(-c3ccn(Cc4ccccc4)n3)n2c1 | inactive | inactive
Cc1ccc(S(=O)(=O)Nc2ccc(CN3CCN(C(=O)c4cccc(C#N)c4)CC3)cc2)cc1 | inactive | inactive
CNc1cc(C)nc(C2CN(C(=O)c3n[nH]c4ccccc34)CCO2)c1 (stereo unspecified) | inactive | inactive
COc1cccc(NC(=O)c2c(NC(=O)c3cccnc3)sc3c2CCC3)c1 | inactive | inactive
CC(C)(C)OC(=O)N1CCC(Cn2nc(-c3cnc4ccccc4c3)c3c(N)ncnc32)CC1 | inactive | inactive
O=C(C1CCN(c2cc(-n3cccc3)ncn2)CC1)N1CCc2ccccc2C1 | inactive | inactive
C[C@H](C(N)=O)N1CCCC[C@H]1c1ccc(OCc2cccc(F)c2)cc1 | inactive | inactive
Cc1cccc(C(=O)Nc2ccnc(N(C)C3CCN(CC(C)C)CC3)c2)c1 | inactive | inactive
O=C(Nc1nnc(-c2ccc(Cl)s2)o1)c1ccc(Cl)s1 | inactive | inactive
CCCn1c(NC(=O)c2ccc3ccccc3n2)nc2ccccc21 | inactive | inactive
Cc1cc(Cl)c(S(=O)(=O)N2CCCC2)cc1OCC(=O)NC1CCCCC1 | inactive | inactive
Cn1c(=O)c2c(S(C)(=O)=O)snc2n(C)c1=O | inactive | inactive
CCOc1ccc(OCC(=O)Nc2cc(C)cc(C)c2)cc1 | inactive | inactive
CCCCCCCCCCCCCCCCOP(=O)([O-])OCC[N+](C)(C)C | inactive | inactive
Cc1ccc2c(c1C)NC(=O)C21NN=C(c2ccccc2)S1 (stereo unspecified) | inactive | inactive
COc1ccc(-c2cnc3ccc(NCc4ccc(S(N)(=O)=O)cc4)nn23)cn1 | inactive | inactive
COCC(C)NC(=O)CSc1ncnc2sc(-c3ccccc3)cc12 (stereo unspecified) | inactive | inactive
Clc1ccc(-n2cc(COc3ccnc4ccccc34)nn2)cc1 | inactive | inactive
Cc1cc(O)nc(-n2nc(C)cc2C)n1 | inactive | inactive
CC(=O)NC[C@H]1CN(c2ccc(N3CCSCC3)c(F)c2)C(=O)O1 | inactive | inactive
COc1cc2ncnc(NC3CCN(Cc4ccccc4)CC3)c2cc1OC | inactive | inactive
CC(C(=O)N1CCCC1)N1CCN(S(=O)(=O)c2ccc(C(C)(C)C)cc2)CC1 (stereo unspecified) | inactive | inactive
CCc1cc(=O)n(C)c(SC(C)C(=O)Nc2ccc(F)cc2)n1 (stereo unspecified) | inactive | inactive
N=C(N)Nc1ccc(-c2ccc(-c3ccc(NC(=N)N)cc3Cl)o2)c(Cl)c1 | inactive | inactive
O=C([C@@H](c1ccc(Cl)cc1)c1cccnc1)N1CCN(c2ccc(C(F)(F)F)cc2)CC1 | inactive | inactive
CCc1nc2ccc(C(=O)NCc3ccc4c(c3)OCO4)cn2c1N(C)Cc1cccs1 | inactive | inactive

Compound | inhibition [1] | inhibition [2]
CC[C@@H]([C@H](C)O)n1ncn(-c2ccc(N3CCN(c4ccc(OC[C@@H]5CO[C@@](Cn6cncn6)(c6ccc(F)cc6F)C5)cc4)CC3)cc2)c1=O | inactive | inactive
COc1ccc(C2=NN(C3CCCCCC3)C(=O)C2(C)C)cc1OCc1ccccn1 | inactive | inactive
N#Cc1nc(-c2ccccc2F)oc1NCCc1ccccc1 | inactive | inactive
Cc1cc(OCC(=O)NCc2ccccc2)c2cc(Br)ccc2n1 | inactive | inactive
CC(C)c1ncc(-c2ccncc2)c([C@H]2CC[C@H](CNC(=O)c3cccnc3)CC2)n1 | inactive | inactive
Cn1ncc2c(N3CCOCC3)nc(NCCc3c[nH]c4ccccc34)nc21 | inactive | inactive
COc1ccc(C2=NN(C3CCCCCC3)C(=O)[C@@H]3CC=CC[C@H]23)cc1OCCCCOc1ccc(-c2nnn[nH]2)cc1 | inactive | inactive
CCCCOC(=O)Nc1cc2nc(C3CCCCC3)[nH]c2cc1N1CCCC1 | inactive | inactive
c1ccc(-c2cc(N3CCCCC3)c3ccccc3n2)nc1 | inactive | inactive
Cc1nn2c(=O)c3c([nH]c2c1-c1ccc(Cl)cc1)CCCC3 | inactive | inactive
CNC(=O)CNc1nc(-c2ccccn2)nc2scc(-c3ccccc3)c12 | inactive | inactive
Nc1ccc(C(=O)Nc2ccc(-c3nc4ccccc4o3)cc2)cc1 | inactive | inactive
COc1cc(Br)cc2cc(C(=O)Nc3cccc(C(F)(F)F)c3)c(=O)oc12 | inactive | inactive
Cc1ccc(NC(=O)c2cc(S(=O)(=O)NC(C)(C)C)ccc2C)nc1 | inactive | inactive
COC(=O)c1cccc2oc(-c3cccc(OC)c3NC(=O)c3cc(-c4ccccc4)on3)nc12 | inactive | inactive
N=C(N)Nc1ccc(-c2ccc(-c3ccc(N=C(N)N)c(Cl)c3)o2)cc1Cl | inactive | inactive
CC1=NN(c2nc3ccccc3s2)C(=O)C1Cc1cccc2ccccc12 (stereo unspecified) | inactive | inactive
O[C@@H](c1cc(C(F)(F)F)nc2c(C(F)(F)F)cccc12)[C@H]1CCCCN1 | inactive | inactive
CNC(=O)c1cc(S(=O)(=O)N2CCN(c3ccccn3)CC2)cs1 | inactive | inactive
CCc1nc2ccc(Cl)cn2c1C(=O)NCc1ccc(N2CCC(c3ccc(OC(F)(F)F)cc3)CC2)cc1 | inactive | inactive
Nc1ncc(-c2cn[nH]c2)cc1-c1nc2cc(Cl)cnc2[nH]1 | inactive | inactive
CCCCc1ccc(NC(=O)Nc2ccc(O[C@H]3CCCC[C@@H]3N(C)c3ccccc3)c(F)c2)cc1 | inactive | inactive
Cc1ccccc1C(=O)N1N=C(Nc2ccccc2)SC1(C)C | inactive | inactive
COC(=O)Nc1nc2cc(C(=O)c3ccccc3)ccc2[nH]1 | inactive | inactive
CCc1ccc(S(=O)(=O)Nc2cc(CN3CCN(CCC(C)C)CC3)ccc2C)cc1 | inactive | inactive
CC(C)(C)C(=O)N(CCCCCCN1C[C@H](O)[C@@H](O)[C@H](O)[C@H]1CO)C1CCCCCC1 | inactive | inactive
